The values below come from patent US9447083B2, “N-acylhydrazone derivatives for selective T cell inhibitor and anti-lymphoid malignancy drug” (CHONG KUN DANG PHARMACEUTICAL CORP., priority 2012, dated 2016).

The first assay concerns Jurkat T cells. Briefly: Pro-apoptotic activity on Jurkat T cells (FITC-Annexin V / 7-AAD flow cytometry). It counts as cell-based. As to conditions: Homo sapiens, 72 hours, cells stained with FITC-Annexin V and 7-AAD among total cells, read-out: Cell Apoptosis Effect to Jurkat T Cell (% in 5 μM). The procedure:
In order to investigate the effects of the prepared compounds, the apoptosis-inducing effects of the compounds on human T cell acute lymphoblastic leukemia cell line, Jurkat T cells, were evaluated in the following manner.
Jurkat T cells cultured in RPMI medium containing 10% fetal bovine serum (FBS) were collected and stained with trypan blue (Sigma). […] Then, the cells were centrifuged at 1200 rpm at room temperature for 5 minutes and re-suspended in 10% FBS-containing RPMI medium at a concentration of 1.5×10^5 cells/mL. 200 μL of the cell suspension was dispensed into each well of a flat bottom 96-well plate (Costar). Then, the cells were treated with 10 μL of the diluted compounds in RPMI medium at final concentrations of […] or 5 μM, and incubated in a 5% CO2 incubator at 37° C. for 72 hours. In a vehicle control group, the cells were treated with 10 μL of RPMI medium containing 1% of dimetylsulfoxide (DMSO, Sigma). The incubated cells were harvested, put into 5-mL FACS tubes (BD Falcon), washed with 1 mL of phosphate buffered saline (PBS), and then re-suspended in 0.1 mL of binding buffer (10 mM Hepes-NaOH, pH 7.4, 140 mM NaCl, […] CaCl2). The suspended cells were stained with fluorescein isothiocyanate (FITC)-Annexin V (BD Biosciences) and 7-amino-actinomycin D (7-AAD, e-Biosciences) at room temperature for 15 minutes. The stained cells were suspended in 0.3 mL of binding buffer and analyzed by a flow cytometer. Apoptosis was determined by the ratio (%) of cells stained with FITC-Annexin V and 7-AAD among the total cells (see Tables 10 and 11).
Consider `Cc1cc(C)c(OCC(=O)N(CCN2CCCC2)/N=C/c2ccc3cc[nH]c3c2)c(C)c1` [Compound 201], for which the cytotoxicity at 5 µM stood at 100%.

For `Cc1ccccc1OCC(=O)N/N=C/c1ccc2[nH]cnc2c1` [Compound 100], the cytotoxicity at 5 µM was determined as 90%.

Regarding `Cc1ccccc1OCC(=O)N/N=C/c1ccc2c(ccn2CN(C)C)c1` [Compound 072], the cytotoxicity at 5 µM is 95%.

In the case of `Cc1cc(-c2cccnc2)cc(C)c1OCC(=O)N/N=C/c1cccc2[nH]ccc12` [Compound 137, (E)-N′-((1H-indol-4-yl)methylene)-2-(2,6-dimethyl-4-(pyridin-3-yl)phenoxy)acetohydrazide], the cytotoxicity at 5 µM was 100%.

Regarding `O=C(COc1ccccc1C(F)(F)F)N/N=C/c1ccc2cc[nH]c2c1` [Compound 194], the cytotoxicity at 5 µM was 100%.

Regarding `Cc1cc(C)c(OCC(=O)N/N=C/c2ccc3cc[nH]c3c2)c(-c2ccoc2)c1` [Compound 218, (E)-N′-((1H-indol-6-yl)methylene)-2-(2-(furan-3-yl)-4,6-dimethylphenoxy)acetohydrazide], the cytotoxicity at 5 µM came to 100%.

Turning to `O=C(COc1ccccc1C(F)(F)F)N/N=C/c1ccc2[nH]ccc2c1` [Compound 193], the cytotoxicity at 5 µM was 100%.

Consider `O=C(COc1ccccc1-c1cccnc1)N/N=C/c1cccc2[nH]ccc12` [Compound 146, (E)-N′-((1H-indol-4-yl)methylene)-2-(2-(pyridin-3-yl)phenoxy)acetohydrazide], for which the cytotoxicity at 5 µM was 100%.

With `Cc1cc(C)c(OCC(=O)N/N=C/c2cccc3[nH]cc(CN4CCC(C)CC4)c23)c(C)c1` [Compound 211], the cytotoxicity at 5 µM turned out to be 100%.

For the compound `Cc1cc(C)c(OCC(=O)N(CCN2CCOCC2)/N=C/c2ccc3cc[nH]c3c2)c(C)c1` [Compound 198], the cytotoxicity at 5 µM is 100%.

With `CC(C)c1cccc(C(C)C)c1OCC(=O)N/N=C/c1cccc2[nH]ccc12` [Compound 121, (E)-N′-((1H-indol-4-yl)methylene)-2-(2,6-diisopropylphenoxy)acetohydrazide], the cytotoxicity at 5 µM worked out at 100%.

For `Cc1cc(-c2cncnc2)cc(C)c1OCC(=O)N/N=C/c1cccc2[nH]ccc12` [Compound 149, (E)-N′-((1H-indol-4-yl)methylene)-2-(2,6-dimethyl-4-(pyrimidin-5-yl)phenoxy)acetohydrazide], the cytotoxicity at 5 µM was determined as 100%.

With `Cc1cc(C)c(OCC(=O)N/N=C/c2ccc3[nH]ccc3c2)c(-c2cccnc2)c1` [Compound 184, (E)-N′-((1H-indol-5-yl)methylene)-2-(2,4-dimethyl-6-(pyridin-3-yl)phenoxy)acetohydrazide], the cytotoxicity at 5 µM was found to be 100%.

With `Cc1cc(C)c(OCC(=O)N(COC(=O)c2ccc(CN3CCOCC3)cc2)/N=C/c2cccc3[nH]ccc23)c(C)c1` [Compound 245, (E)-(2-((1H-indol-4-yl)methylene)-1-(2-(mesityloxy)acetyl)hydrazinyl)methyl 4-(morpholinomethyl)benzoate], the cytotoxicity at 5 µM is 100%.

Take `Cc1cc(-c2cnc(N)nc2)cc(C)c1OCC(=O)N/N=C/c1ccc2cc[nH]c2c1` [Compound 152, (E)-N′-((1H-indol-6-yl)methylene)-2-(4-(2-aminopyrimidin-5-yl)-2,6-dimethylphenoxy)acetohydrazide]: the cytotoxicity at 5 µM was determined as 90%.

As for `Cc1cc(Cl)cc(C)c1OCC(=O)N/N=C/c1cccc2[nH]ccc12` [Compound 155, (E)-N′-((1H-indol-4-yl)methylene)-2-(4-chloro-2,6-dimethylphenoxy)acetohydrazide], the cytotoxicity at 5 µM was found to be 100%.

Turning to `O=C(COc1cccnc1Cl)N/N=C/c1cccc2[nH]ccc12` [Compound 196, (E)-N′-((1H-indol-4-yl)methylene)-2-(2-chloropyridin-3-yloxy)acetohydrazide], the cytotoxicity at 5 µM was found to be 100%.

As to `Cc1cc(Br)cc(C)c1OCC(=O)N/N=C/c1cccc2[nH]ccc12` [Compound 112, (E)-N′-((1H-indol-4-yl)methylene)-2-(4-bromo-2,6-dimethylphenoxy)acetohydrazide], the cytotoxicity at 5 µM worked out at 100%.

As for `Cc1cc(Br)cc(C)c1OCC(=O)N/N=C/c1ccc2[nH]ccc2c1` [Compound 092, (E)-N′-((1H-indol-5-yl)methylene)-2-(4-bromo-2,6-dimethylphenoxy)acetohydrazide], the cytotoxicity at 5 µM was 100%.

Still in this assay, the particulars now being: Homo sapiens, 72 hours, cells stained with FITC-Annexin V and 7-AAD among total cells, read-out: Jurkat T Cell Apoptosis (% in 5 μM).
Turning to `Cc1cc(C)c(OCC(=O)N/N=C/c2cccc3c2ccn3S(=O)(=O)c2ccccc2)c(C)c1` [Compound 280, (E)-2-(mesityloxy)-N′-((1-(phenylsulfonyl)-1H-indol-4-yl)methylene)acetohydrazide], the cytotoxicity at 5 µM is 100%.

Turning to `Cc1cc(-c2ccoc2)cc(C)c1OCC(=O)N/N=C/c1cccc2[nH]ccc12` [Compound 336, (E)-N′-((1H-indol-4-yl)methylene)-2-(4-(furan-3-yl)-2,6-dimethylphenoxy)acetohydrazide], the cytotoxicity at 5 µM turned out to be 100%.

With `Cc1ncccc1OCC(=O)N(CO)/N=C/c1cccc2[nH]ccc12` [Compound 289], the cytotoxicity at 5 µM came out at 100%.

Turning to `Cc1ncccc1OCC(=O)N/N=C/c1ccc2cc[nH]c2c1` [Compound 304, (E)-N′-((1H-indol-6-yl)methylene)-2-((2-methylpyridin-3-yl)oxy)acetohydrazide], the cytotoxicity at 5 µM turned out to be 90%.

Take `N#Cc1cc(Br)ccc1OCC(=O)N/N=C/c1cccc2[nH]ccc12` [Compound 330, (E)-N′-((1H-indol-4-yl)methylene)-2-(4-bromo-2-cyanophenoxy)acetohydrazide]: the cytotoxicity at 5 µM amounted to 80%.

`Cc1cc(OCC(=O)N/N=C/c2cccc3[nH]ccc23)cc(C)n1` [Compound 286, (E)-N′-((1H-indol-4-yl)methylene)-2-(2,6-dimethylpyridin-4-yloxy)acetohydrazide]: the cytotoxicity at 5 µM turned out to be 100%.

For the compound `O=C(COc1cccnc1-c1ccoc1)N/N=C/c1cccc2[nH]ccc12` [Compound 319, (E)-N′-((1H-indol-4-yl)methylene)-2-((2-(furan-3-yl)pyridin-3-yl)oxy)acetohydrazide], the cytotoxicity at 5 µM came out at 100%.

For the compound `Cc1cc(OCC(=O)N/N=C/c2cccc3[nH]ccc23)nc(C)n1` [Compound 301, (E)-N′-((1H-indol-4-yl)methylene)-2-(2,6-dimethylpyrimidin-4-yloxy)acetohydrazide], the cytotoxicity at 5 µM was found to be 100%.

Turning to `Cc1cccc(-c2ccoc2)c1OCC(=O)N/N=C/c1cccc2[nH]ccc12` [Compound 314, (E)-N′-((1H-indol-4-yl)methylene)-2-(2-(furan-3-yl)-6-methylphenoxy)acetohydrazide], the cytotoxicity at 5 µM turned out to be 100%.

With `Cc1cc(OCC(=O)N/N=C/c2ccc3cc[nH]c3c2)cc(C)n1` [Compound 288], the cytotoxicity at 5 µM stood at 90%.

For `Cc1cc(C2CCOC2)cc(C)c1OCC(=O)N/N=C/c1ccc2cc[nH]c2c1` (stereo not shown) [Compound 323, (E)-N′-((1H-indol-6-yl)methylene)-2-(2,6-dimethyl-4-(tetrahydrofuran-3-yl)phenoxy)acetohydrazide], the cytotoxicity at 5 µM was determined as 100%.

Regarding `Cc1cc(F)cc(C2CCOC2)c1OCC(=O)N/N=C/c1ccc2cc[nH]c2c1` (stereo not shown) [Compound 378, (E)-N′-((1H-indol-6-yl)methylene)-2-(4-fluoro-2-methyl-6-(tetrahydrofuran-3-yl)phenoxy)acetohydrazide], the cytotoxicity at 5 µM was determined as 100%.
